A short description of data set [1]: clinical. To be noted: human, in vivo; for AUC(0-t): AUC0-24 PBMC.
A further data set relates to HIV. Further details: method as in earlier work. The following applies: cited from earlier work.
A short description of data set [2]: clinical. The following applies: human, in vivo, AUC0-24 Plasma.
For data set [3] the following is noted: human, in vivo.

By AUC(0-t) is commonly meant exposure summed from dosing to a finite time, without extrapolation to infinity. Regarding `CC(C)CN(C[C@@H](O)[C@H](Cc1ccccc1)NC(=O)O[C@H]1CO[C@H]2OCC[C@H]21)S(=O)(=O)c1ccc(N)cc1` [DRV, darunavir], the AUC(0-t) in “clinical [1]” stood at 17500 ng·h/mL. Besides, the “90% effective concentration (EC90)” value with HIV is 0.2 µg/mL.

Broadly, the Kp is the ratio of the level in a tissue or fluid to that in plasma or blood. `C[C@@H]1CCO[C@H]2Cn3cc(C(=O)NCc4ccc(F)cc4F)c(=O)c(O)c3C(=O)N12` [DTG, dolutegravir]: the figures for the AUC(0-t) in “clinical [2]” and in “clinical [1]” were 31600 ng·h/mL and 14900 ng·h/mL, respectively. The “AUC0-24 Plasma” value (human, in vivo) amounted to 30967 ng·h/mL. The Kp in “clinical [1]” (Ctrough in PBMC relative to plasma, throughout the protocol) was approximately 0.25; in the data set “clinical [1]” (PBMC/Plasma Ctrough ratio), 0.19. Also, the “AUC0-24 PBMC” value in data set [3] amounted to 12807 ng·h/mL.

In the case of `CO[C@H]1/C=C/O[C@@]2(C)Oc3c(C)c(O)c4c(O)c(c(/C=N/N5CCN(C)CC5)c(O)c4c3C2=O)NC(=O)/C(C)=C\C=C\[C@H](C)[C@H](O)[C@@H](C)[C@@H](O)[C@@H](C)[C@H](OC(C)=O)[C@@H]1C` [RIF, rifampicin], for the setting “median, DRV/RTV 1600/200 QD + DTG + RIF (n = 4)”, the “Cmax Plasma” value is listed as 11240 ng/mL.

As for `CC(C)c1nc(CN(C)C(=O)N[C@H](C(=O)N[C@@H](Cc2ccccc2)C[C@H](O)[C@H](Cc2ccccc2)NC(=O)OCc2cncs2)C(C)C)cs1` [RTV, ritonavir], the results for the AUC(0-t) in “clinical [2]” and in the data set “clinical [1]” were 6070 ng·h/mL and 9830 ng·h/mL, respectively.

(Values after publication PMC9211429 (Antimicrobial Agents and Chemotherapy, 2022).)
